From patent US20020137929A1, “1 - (3-heterocyclylphenyl) isothiourea, -isourea, -guanidine and -amidine herbicidal agents” (Intellectual Property Department, BASF Aktiengesellschaft, priority 1998, published 2002)

Experiments:
[1] = tested on: CASOB (Sicklepod); test: Postemergence herbicidal evaluation; assay type: in vivo, Cassia obtusifolia; settings: postemergence
In short: (§1)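 Visual 0–9 rating versus control (stand, vigor, malformation, size, chlorosis, overall appearance), taken four to five weeks post-spray. Two-week-old seedlings received roughly 0.0156–0.500 kg/ha active in acetone/water (50/50) with 0.5% TWEEN 20 via nozzle at 40 psi.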

[2] = tested on: CHEAL (Lambsquarters, Common); test: Postemergence herbicidal evaluation; assay type: in vivo, Chenopodium album; settings: postemergence
In short: as §1

[3] = tested on: GALAP (Galium); test: Postemergence herbicidal evaluation; assay type: in vivo, Galium aparine; settings: postemergence
In short: as §1

[4] = tested on: ORYSAT (Rice, Tebonnet); test: Postemergence herbicidal evaluation; assay type: in vivo, Oryza sativa, (L.) Tebonnet; settings: postemergence
In short: as §1

[5] = tested on: ZEAMX (Corn, Field); test: Postemergence herbicidal evaluation; assay type: in vivo, Zea mays; settings: postemergence
In short: as §1

[6] = tested on: AMBEL (Ragweed, Common); test: Preemergence herbicidal evaluation; assay type: in vivo, Ambrosia artemisifolia; settings: preemergence, rated 4-5 weeks after treatment, 0-9 scale
In short: (§2)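 Test compound, dissolved in aqueous acetone, was sprayed over planted soil cups at an equivalent of about 0.0156 to 0.500 kg/ha; seeds had been mixed with potting soil. Greenhouse growth followed, with visual 0-9 scoring of injury at four to five weeks.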

[7] = tested on: SETVI (Foxtail, Green); test: Preemergence herbicidal evaluation; assay type: in vivo, Setaria viridis; settings: preemergence, rated 4-5 weeks after treatment, 0-9 scale
In short: as §2

[8] = tested on: GLXMAW (Soybean, Williams); test: Preemergence herbicidal evaluation; assay type: in vivo, Glycine max, (L.) Merr. cv Williams; settings: preemergence, rated 4-5 weeks after treatment, 0-9 scale
In short: as §2

[9] = tested on: ORYSAT (Rice, Tebonnet); test: Preemergence herbicidal evaluation; assay type: in vivo, Oryza sativa, (L.) Tebonnet; settings: preemergence, rated 4-5 weeks after treatment, 0-9 scale
In short: as §2

[10] = tested on: CYPSE (Flatsedge); test: Preemergence weed control under flooded paddy conditions; assay type: in vivo, Cyperus serotinus; settings: rated 3-4 weeks after treatment
In short: (§3)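 First, seeds or propagules go into the top 0.5 cm of silt loam; next, water is held 1.5 to 3 cm over the soil; then compound (50/50 acetone/water) is pipetted into it at about 0.0313 to 0.500 kg/ha; finally plants are rated visually 0-9 after three to four weeks.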

[11] = tested on: MOOVA (Monochoria); test: as above; assay type: in vivo, Monochoria vaginalis; settings: rated 3-4 weeks after treatment
In short: as §3

[12] = tested on: CYPIR (Rice Flatsedge); test: Postemergence weed control under flooded paddy conditions; assay type: in vivo, Cyperus iria; settings: postemergence weeds, rated 3 to 4 weeks after treatment
In short: (§4)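 Injury ratings (0–9 scale covering stand, vigor, malformation, size, chlorosis and overall appearance versus control) were made three to four weeks after treatment. Test material, about 0.0313 to 0.500 kg/ha a.i. in 50/50 v/v aqueous/acetone, was added to flood water 1.5 to 3 cm deep over 3 to 5 cm weeds and 1.5 to 2.5 leaf rice.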

[13] = tested on: CYPSE (Flatsedge); test: as above; assay type: in vivo, Cyperus serotinus; settings: postemergence weeds, rated 3 to 4 weeks after treatment
In short: as §4

[14] = tested on: SAGPY (Arrowhead (Pygmaea)); test: as above; assay type: in vivo, Sagittaria pygmaea; settings: postemergence weeds, rated 3 to 4 weeks after treatment
In short: as §4

SMILES: CN1C(=O)C(CC(=O)NS(=O)(=O)c2ccccc2)SC1=Nc1cc(-n2c(=O)cc(C(F)(F)F)n(C)c2=O)c(F)cc1Cl (centres unmarked) [Compound 102, 2-{{2-Chloro-5-[3,6-dihydro-3-methyl-2,6-dioxo-4-(trifluoromethyl)-1(2H)-pyrimidinyl]-4-fluorophenyl}imino}-3-methyl-4-oxo-N-(phenylsulfonyl)-5-thiazolidineacetamide]
- Herbicidal rating CASOB ([1]; rate 0.0156 kg/ha): 0.0
- Herbicidal rating CASOB ([1]; rate 0.0313 kg/ha): 1.0
- Herbicidal rating CASOB ([1]; rate 0.0625 kg/ha): 1.0
- Herbicidal rating CASOB ([1]; rate 0.1250 kg/ha): 3.0
- Herbicidal rating CHEAL ([2]; rate 0.0156 kg/ha): 3.0
- Herbicidal rating CHEAL ([2]; rate 0.0313 kg/ha): 4.0
- Herbicidal rating CHEAL ([2]; rate 0.0625 kg/ha): 6.0
- Herbicidal rating CHEAL ([2]; rate 0.1250 kg/ha): 7.0
- Herbicidal rating GALAP ([3]; rate 0.0156 kg/ha): 1.0
- Herbicidal rating GALAP ([3]; rate 0.0313 kg/ha): 1.0
- Herbicidal rating GALAP ([3]; rate 0.0625 kg/ha): 1.0
- Herbicidal rating GALAP ([3]; rate 0.1250 kg/ha): 4.0
- Herbicidal rating ORYSAT ([4]; rate 0.0156 kg/ha): 2.5
- Herbicidal rating ORYSAT ([4]; rate 0.0313 kg/ha): 3.0
- Herbicidal rating ORYSAT ([4]; rate 0.0625 kg/ha): 3.0
- Herbicidal rating ORYSAT ([4]; rate 0.1250 kg/ha): 3.0
- Herbicidal rating ZEAMX ([5]; rate 0.0156 kg/ha): 4.5
- Herbicidal rating ZEAMX ([5]; rate 0.0313 kg/ha): 5.0
- Herbicidal rating ZEAMX ([5]; rate 0.0625 kg/ha): 5.5
- Herbicidal rating ZEAMX ([5]; rate 0.1250 kg/ha): 6.5
- AMBEL rating ([6]; 0.0156 kg/ha): 0.0
- AMBEL rating ([6]; 0.0313 kg/ha): 0.0
- AMBEL rating ([6]; 0.0625 kg/ha): 0.0
- AMBEL rating ([6]; 0.2500 kg/ha): 4.0
- AMBEL rating ([6]; 0.5000 kg/ha): 7.0
- SETVI rating ([7]; 0.0156 kg/ha): 1.0
- SETVI rating ([7]; 0.0313 kg/ha): 1.0
- SETVI rating ([7]; 0.0625 kg/ha): 0.0
- SETVI rating ([7]; 0.2500 kg/ha): 0.0
- SETVI rating ([7]; 0.5000 kg/ha): 1.0
- GLXMAW rating ([8]; 0.0156 kg/ha): 0.0
- GLXMAW rating ([8]; 0.0313 kg/ha): 0.0
- GLXMAW rating ([8]; 0.0625 kg/ha): 0.0
- GLXMAW rating ([8]; 0.2500 kg/ha): 1.0
- GLXMAW rating ([8]; 0.5000 kg/ha): 4.0
- ORYSAT rating ([9]; 0.0156 kg/ha): 0.0
- ORYSAT rating ([9]; 0.0313 kg/ha): 0.0
- ORYSAT rating ([9]; 0.0625 kg/ha): 0.0
- ORYSAT rating ([9]; 0.2500 kg/ha): 0.0
- ORYSAT rating ([9]; 0.5000 kg/ha): 1.0
- CYPSE herbicidal effect rating ([10]; 0.2500 kg/ha): 0.0
- CYPSE herbicidal effect rating ([10]; 0.5000 kg/ha): 0.0
- MOOVA herbicidal effect rating ([11]; 0.2500 kg/ha): 0.0
- MOOVA herbicidal effect rating ([11]; 0.5000 kg/ha): 4.0
- Herbicidal rating CYPIR ([12]; Rate 0.2500 kg/ha): 2.0
- Herbicidal rating CYPIR ([12]; Rate 0.5000 kg/ha): 6.0
- Herbicidal rating CYPSE ([13]; Rate 0.2500 kg/ha): 0.0
- Herbicidal rating CYPSE ([13]; Rate 0.5000 kg/ha): 0.0
- Herbicidal rating SAGPY ([14]; Rate 0.2500 kg/ha): 0.0
- Herbicidal rating SAGPY ([14]; Rate 0.5000 kg/ha): 0.0

SMILES: C=CCN1C(=O)C(CC(=O)NS(=O)(=O)CC)SC1=Nc1cc(-n2c(=O)cc(C(F)(F)F)n(C)c2=O)c(F)cc1Cl (centres unmarked) [Compound 104, 3-Allyl-2-{{2-chloro-5-[3,6-dihydro-3-methyl-2,6-dioxo-4-(trifluoromethyl)-1(2H)-pyrimidinyl]-4-fluorophenyl}imino}-N-(ethylsulfonyl)-4-oxo-5-thiazolidineacetamide]
- Herbicidal rating CASOB ([1]; rate 0.0156 kg/ha): 0.0
- Herbicidal rating CASOB ([1]; rate 0.0313 kg/ha): 0.0
- Herbicidal rating CASOB ([1]; rate 0.0625 kg/ha): 0.0
- Herbicidal rating CASOB ([1]; rate 0.1250 kg/ha): 1.0
- Herbicidal rating CHEAL ([2]; rate 0.0156 kg/ha): 0.0
- Herbicidal rating CHEAL ([2]; rate 0.0313 kg/ha): 2.0
- Herbicidal rating CHEAL ([2]; rate 0.0625 kg/ha): 4.0
- Herbicidal rating CHEAL ([2]; rate 0.1250 kg/ha): 5.0
- Herbicidal rating GALAP ([3]; rate 0.0156 kg/ha): 0.0
- Herbicidal rating GALAP ([3]; rate 0.0313 kg/ha): 0.0
- Herbicidal rating GALAP ([3]; rate 0.0625 kg/ha): 1.0
- Herbicidal rating GALAP ([3]; rate 0.1250 kg/ha): 2.0
- Herbicidal rating ORYSAT ([4]; rate 0.0156 kg/ha): 0.0
- Herbicidal rating ORYSAT ([4]; rate 0.0313 kg/ha): 0.5
- Herbicidal rating ORYSAT ([4]; rate 0.0625 kg/ha): 1.0
- Herbicidal rating ORYSAT ([4]; rate 0.1250 kg/ha): 2.0
- Herbicidal rating ZEAMX ([5]; rate 0.0156 kg/ha): 4.5
- Herbicidal rating ZEAMX ([5]; rate 0.0313 kg/ha): 4.5
- Herbicidal rating ZEAMX ([5]; rate 0.0625 kg/ha): 6.0
- Herbicidal rating ZEAMX ([5]; rate 0.1250 kg/ha): 8.0
- AMBEL rating ([6]; 0.0625 kg/ha): 0.0
- AMBEL rating ([6]; 0.1250 kg/ha): 0.0
- AMBEL rating ([6]; 0.2500 kg/ha): 3.0
- AMBEL rating ([6]; 0.5000 kg/ha): 9.0
- SETVI rating ([7]; 0.0625 kg/ha): 0.0
- SETVI rating ([7]; 0.1250 kg/ha): 0.0
- SETVI rating ([7]; 0.2500 kg/ha): 0.0
- SETVI rating ([7]; 0.5000 kg/ha): 6.0
- GLXMAW rating ([8]; 0.0625 kg/ha): 0.0
- GLXMAW rating ([8]; 0.1250 kg/ha): 0.0
- GLXMAW rating ([8]; 0.2500 kg/ha): 0.0
- GLXMAW rating ([8]; 0.5000 kg/ha): 3.0
- ORYSAT rating ([9]; 0.0625 kg/ha): 0.0
- ORYSAT rating ([9]; 0.1250 kg/ha): 0.0
- ORYSAT rating ([9]; 0.2500 kg/ha): 0.0
- ORYSAT rating ([9]; 0.5000 kg/ha): 0.0
- CYPSE herbicidal effect rating ([10]; 0.0313 kg/ha): 0.0
- CYPSE herbicidal effect rating ([10]; 0.1250 kg/ha): 0.0
- CYPSE herbicidal effect rating ([10]; 0.2500 kg/ha): 0.0
- MOOVA herbicidal effect rating ([11]; 0.0313 kg/ha): 7.0
- MOOVA herbicidal effect rating ([11]; 0.0625 kg/ha): 9.0
- MOOVA herbicidal effect rating ([11]; 0.1250 kg/ha): 9.0
- MOOVA herbicidal effect rating ([11]; 0.2500 kg/ha): 9.0
- Herbicidal rating CYPIR ([12]; Rate 0.0313 kg/ha): 5.0
- Herbicidal rating CYPIR ([12]; Rate 0.0625 kg/ha): 9.0
- Herbicidal rating CYPIR ([12]; Rate 0.1250 kg/ha): 9.0
- Herbicidal rating CYPIR ([12]; Rate 0.2500 kg/ha): 9.0
- Herbicidal rating CYPSE ([13]; Rate 0.0313 kg/ha): 0.0
- Herbicidal rating CYPSE ([13]; Rate 0.1250 kg/ha): 0.0
- Herbicidal rating CYPSE ([13]; Rate 0.2500 kg/ha): 0.0
- Herbicidal rating SAGPY ([14]; Rate 0.0313 kg/ha): 6.0
- Herbicidal rating SAGPY ([14]; Rate 0.0625 kg/ha): 9.0
- Herbicidal rating SAGPY ([14]; Rate 0.1250 kg/ha): 9.0
- Herbicidal rating SAGPY ([14]; Rate 0.2500 kg/ha): 9.0
